Source: ChEMBL document CHEMBL1201862, “PubChem BioAssay data set” (2004)
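The compound was tested at five concentrations on cells cultured in 96-well plates, with a 48-hour exposure period. At the GI50, growth is halved.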 Activity calls are given as the source filed them. Cut-off read from the data, not from the text of the source: active = GI50 up to about 1.1 µM and inactive = higher.

Columns and labels:
Experiment in all cases: NCI tumour cell line growth inhibition, 48 h
PC-3 = test system: PC-3
SK-OV-3 = test system: SK-OV-3
OVCAR-4 = test system: OVCAR-4
MCF7 = test system: MCF7
SF-268 = test system: SF-268
SNB-75 = test system: SNB-75
SW-620 = test system: SW-620
SK-MEL-2 = test system: SK-MEL-2
OVCAR-8 = test system: OVCAR-8
TK-10 = test system: TK-10
HL-60 = test system: HL-60
MOLT-4 = test system: MOLT-4
MDA-N = test system: MDA-N
NCI-H226 = test system: NCI-H226
K562 = test system: K562
Hs-578T = test system: Hs-578T
RPMI-8226 = test system: RPMI-8226
SF-539 = test system: SF-539
UO-31 = test system: UO-31
HOP-62 = test system: HOP-62

Structure (SMILES)	GI50 (PC-3)	GI50 (SK-OV-3)	GI50 (OVCAR-4)	GI50 (MCF7)	GI50 (SF-268)	GI50 (SNB-75)	GI50 (SW-620)	GI50 (SK-MEL-2)	GI50 (OVCAR-8)	GI50 (TK-10)	GI50 (HL-60)	GI50 (MOLT-4)	GI50 (MDA-N)	GI50 (NCI-H226)	GI50 (K562)	GI50 (Hs-578T)	GI50 (RPMI-8226)	GI50 (SF-539)	GI50 (UO-31)	GI50 (HOP-62)
Cc1cc(C)c(-n2[nH]c(=O)n(C)c2=O)c(C)c1	> 100 µM (inactive)	> 100 µM (inactive)	> 100 µM (inactive)	> 100 µM (inactive)	> 100 µM (inactive)	> 100 µM (inactive)	> 100 µM (inactive)	> 100 µM (inactive)	> 100 µM (inactive)	> 100 µM (inactive)	> 100 µM (inactive)	> 100 µM (inactive)	> 100 µM (inactive)	> 100 µM (inactive)	> 100 µM (inactive)	> 100 µM (inactive)	> 100 µM (inactive)	> 100 µM (inactive)	> 100 µM (inactive)	
CC(=O)O[C@H]1C(=O)[C@@]2(C)[C@H]([C@H](OC(=O)c3ccccc3)[C@]3(O)C[C@H](OC(=O)[C@H](O)[C@@H](NC(=O)c4ccc(N(C)C)cc4)c4ccccc4)C(C)=C1C3(C)C)[C@]1(OC(C)=O)CO[C@@H]1C[C@@H]2O	< 0.005 µM (active)	0.0262 µM (active)	2.92 µM (inactive)	< 0.005 µM (active)		< 0.005 µM (active)	< 0.005 µM (active)	0.05 µM (active)	< 0.005 µM (active)	0.0723 µM (active)	< 0.005 µM (active)	0.00631 µM (active)	< 0.005 µM (active)	0.008 µM (active)	< 0.005 µM (active)	< 0.005 µM (active)	< 0.005 µM (active)	< 0.005 µM (active)	1.54 µM (inactive)	0.0136 µM (active)
O=C1c2ccccc2-c2c1c(-c1ccc(O)cc1O)nc1ccc3ccccc3c21	> 100 µM (inactive)	> 100 µM (inactive)	> 100 µM (inactive)	79.4 µM (inactive)	> 100 µM (inactive)	> 100 µM (inactive)	> 100 µM (inactive)	> 100 µM (inactive)	79.6 µM (inactive)			> 100 µM (inactive)	> 100 µM (inactive)	> 100 µM (inactive)	> 100 µM (inactive)	21.1 µM (inactive)	> 100 µM (inactive)	> 100 µM (inactive)	> 100 µM (inactive)	49 µM (inactive)
N=C(CCl)NC1CN2CCC1CC2 (stereo not given)	> 100 µM (inactive)	> 100 µM (inactive)	59 µM (inactive)	42.3 µM (inactive)	92.9 µM (inactive)	> 100 µM (inactive)	68.7 µM (inactive)	> 100 µM (inactive)	> 100 µM (inactive)	> 100 µM (inactive)	18.4 µM (inactive)	39.7 µM (inactive)	> 100 µM (inactive)	> 100 µM (inactive)	> 100 µM (inactive)	> 100 µM (inactive)	> 100 µM (inactive)	60.5 µM (inactive)		> 100 µM (inactive)
COc1ccc(/C=N\NC(=O)Nc2cccc3ccccc23)cc1	20.8 µM (inactive)		15.6 µM (inactive)	4.44 µM (inactive)	17.7 µM (inactive)	9.98 µM (inactive)	51.6 µM (inactive)	9.14 µM (inactive)	> 10 µM (inactive)	20.7 µM (inactive)	4.82 µM (inactive)		2.7 µM (inactive)	28.2 µM (inactive)		6.75 µM (inactive)	> 100 µM (inactive)	14 µM (inactive)	35.3 µM (inactive)	11 µM (inactive)
NC(=S)NNCC(=O)CC(O)(C(F)(F)F)C(F)(F)Cl (stereo not given)	> 100 µM (inactive)	> 100 µM (inactive)	> 100 µM (inactive)	> 100 µM (inactive)		29.6 µM (inactive)	> 100 µM (inactive)	> 100 µM (inactive)	> 100 µM (inactive)	> 100 µM (inactive)	97.3 µM (inactive)	> 100 µM (inactive)	> 100 µM (inactive)	> 100 µM (inactive)	> 100 µM (inactive)	> 100 µM (inactive)	> 100 µM (inactive)	> 100 µM (inactive)	> 100 µM (inactive)	
CCCCCc1cc2cc3c(c(O)c2c(=O)[nH]1)C1(CCC3)C(=O)c2c(O)c3c(c(O)c2C1=O)C(=O)C(OC)=CC3=O (stereo not given)	1.1 µM (active)	2.24 µM (inactive)	1.44 µM (inactive)	0.317 µM (active)	0.807 µM (active)	0.906 µM (active)	0.681 µM (active)	1.24 µM (inactive)	0.714 µM (active)		0.478 µM (active)	0.582 µM (active)	1.41 µM (inactive)	1.87 µM (inactive)	0.42 µM (active)	0.743 µM (active)	0.386 µM (active)		0.579 µM (active)	3.33 µM (inactive)
CCOC(=O)c1csc(NC(=O)CN2CCCCC2)n1	> 100 µM (inactive)	> 100 µM (inactive)	> 100 µM (inactive)	> 100 µM (inactive)	> 100 µM (inactive)	> 100 µM (inactive)	> 100 µM (inactive)	> 100 µM (inactive)	> 100 µM (inactive)	> 100 µM (inactive)	> 100 µM (inactive)	> 100 µM (inactive)	> 100 µM (inactive)		> 100 µM (inactive)	> 100 µM (inactive)	> 100 µM (inactive)	> 100 µM (inactive)	> 100 µM (inactive)	> 100 µM (inactive)
CC(=O)N[C@H]1CCCC[C@@H]1OC(C)=O	> 100 µM (inactive)	> 100 µM (inactive)	> 100 µM (inactive)	> 100 µM (inactive)		> 100 µM (inactive)	> 100 µM (inactive)	> 100 µM (inactive)	> 100 µM (inactive)	> 100 µM (inactive)	> 100 µM (inactive)	> 100 µM (inactive)	> 100 µM (inactive)	> 100 µM (inactive)	> 100 µM (inactive)	> 100 µM (inactive)	> 100 µM (inactive)			> 100 µM (inactive)
CC(C)=CCC/C(C)=C/CC/C(C)=C/CC/C(C=O)=C/CC/C(C)=C\CC/C(C)=C/CC/C(C)=C/CC/C(C)=C/CC1=CC(=O)C=CC1=O	> 100 µM (inactive)	> 100 µM (inactive)	> 100 µM (inactive)	0.365 µM (active)	> 100 µM (inactive)	38.1 µM (inactive)	> 100 µM (inactive)	31.8 µM (inactive)	46.5 µM (inactive)	> 100 µM (inactive)		55.5 µM (inactive)	> 100 µM (inactive)		> 100 µM (inactive)	62.4 µM (inactive)	37.4 µM (inactive)		> 100 µM (inactive)	> 100 µM (inactive)
CC(C)(C)N(Cc1ccoc1)C(=O)/C=C\[S+]([O-])c1ccccc1 (stereo not given)	10.6 µM (inactive)	24 µM (inactive)	20 µM (inactive)	15.6 µM (inactive)	30.1 µM (inactive)		10.2 µM (inactive)	20.9 µM (inactive)	14.4 µM (inactive)	44.2 µM (inactive)	12.7 µM (inactive)	22.5 µM (inactive)	11.5 µM (inactive)	25.9 µM (inactive)	26.6 µM (inactive)	28.4 µM (inactive)	14.4 µM (inactive)	21 µM (inactive)	14.5 µM (inactive)	16.6 µM (inactive)
Cc1ccc(S(=O)(=O)N/N=C2/CCC3(O)CC2(C)CCC2[C@H]3CC2(C)C)cc1 (stereo not given in full)	12.5 µM (inactive)	32.4 µM (inactive)	35.9 µM (inactive)	35.5 µM (inactive)	68.1 µM (inactive)	21.4 µM (inactive)	27.9 µM (inactive)	23.8 µM (inactive)	34.7 µM (inactive)	34.3 µM (inactive)	31.3 µM (inactive)	11.4 µM (inactive)	30.7 µM (inactive)	27.2 µM (inactive)	16.9 µM (inactive)	35.5 µM (inactive)	38.4 µM (inactive)		25.7 µM (inactive)	43 µM (inactive)
CC(C)C[C@H](NC(=O)[C@H](Cc1cccc2ccccc12)NS(=O)(=O)c1cccc2cccnc12)B(O)O	< 0.0272 µM (active)	0.359 µM (active)	0.0109 µM (active)	< 0.0151 µM (active)			< 0.0176 µM (active)	< 0.0158 µM (active)	0.0557 µM (active)	< 0.0285 µM (active)	< 0.01 µM (active)	< 0.01 µM (active)	< 0.01 µM (active)	0.000208 µM (active)	< 0.0196 µM (active)	< 0.0199 µM (active)	< 0.01 µM (active)	< 0.01 µM (active)	0.279 µM (active)	0.0444 µM (active)
COc1ccc(N2C(=O)C3c4[nH]c5ccc(C)cc5c4C4CCC(C(C)(C)C)CC4C3C2=O)cc1 (stereo not given)	24.1 µM (inactive)	12.4 µM (inactive)	3.35 µM (inactive)	33 µM (inactive)	13 µM (inactive)	2.96 µM (inactive)	5.58 µM (inactive)		6.21 µM (inactive)	17.1 µM (inactive)	19.1 µM (inactive)	12.9 µM (inactive)	> 10 µM (inactive)	21.1 µM (inactive)	13.4 µM (inactive)	3.64 µM (inactive)	11.2 µM (inactive)	15.6 µM (inactive)	17.2 µM (inactive)	13.6 µM (inactive)
CCN(CC)CCN1C=CC(C)C(C(=O)O)C1C(N)=O (stereo not given)	> 100 µM (inactive)	> 100 µM (inactive)	> 100 µM (inactive)	> 100 µM (inactive)	> 100 µM (inactive)	> 100 µM (inactive)	> 100 µM (inactive)	> 100 µM (inactive)	> 100 µM (inactive)	> 100 µM (inactive)	> 100 µM (inactive)	> 100 µM (inactive)	> 100 µM (inactive)	> 100 µM (inactive)	> 100 µM (inactive)	> 100 µM (inactive)	> 100 µM (inactive)		> 100 µM (inactive)	> 100 µM (inactive)
